In PubChem BioAssay AID1963963 (Molecular Pharmacology Branch, DTP, NCI, 2024):

System: 958667-338-R-J2-PDC tumor spheroids viability
Assay: Anticancer human tumor 958667-338-R-J2-PDC patient-derived colon adenocarcinoma cell line growth inhibition [PI3K]
Conditions: spheroids with HUVEC and MSC; for viability, T/C: stronger effect = lower value
How it was run: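 Tumor cells were combined with HUVEC and MSCs into spheroids, then dosed with PI3K-inhibitor combinations over half-log ranges capped near clinical Cmax or 10 microM.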

[1] = curve of first compound, second compound 0.00316 µM
[2] = curve of first compound, second compound 0.01 µM
[3] = curve of first compound, second compound 0.0316 µM
[4] = curve of first compound, second compound 0.1 µM
[5] = curve of first compound, second compound 0.316 µM
[6] = curve of first compound, second compound 1 µM
[7] = second compound 0.00316 µM, first compound 0.0316 µM
[8] = second compound 0.00316 µM, first compound 0.1 µM
[9] = second compound 0.00316 µM, first compound 0.316 µM
[10] = second compound 0.00316 µM, first compound 1 µM
[11] = second compound 0.00316 µM, first compound 3.16 µM
[12] = second compound 0.00316 µM, first compound 10 µM
[13] = second compound 0.01 µM, first compound 0.0316 µM
[14] = second compound 0.01 µM, first compound 0.1 µM
[15] = second compound 0.01 µM, first compound 0.316 µM
[16] = second compound 0.01 µM, first compound 1 µM
[17] = second compound 0.01 µM, first compound 3.16 µM
[18] = second compound 0.01 µM, first compound 10 µM
[19] = second compound 0.0316 µM, first compound 0.0316 µM
[20] = second compound 0.0316 µM, first compound 0.1 µM
[21] = second compound 0.0316 µM, first compound 0.316 µM
[22] = second compound 0.0316 µM, first compound 1 µM
[23] = second compound 0.0316 µM, first compound 3.16 µM
[24] = second compound 0.0316 µM, first compound 10 µM
[25] = second compound 0.1 µM, first compound 0.0316 µM
[26] = second compound 0.1 µM, first compound 0.1 µM
[27] = second compound 0.1 µM, first compound 0.316 µM
[28] = second compound 0.1 µM, first compound 1 µM
[29] = second compound 0.1 µM, first compound 3.16 µM
[30] = second compound 0.1 µM, first compound 10 µM
[31] = second compound 0.316 µM, first compound 0.0316 µM
[32] = second compound 0.316 µM, first compound 0.1 µM
[33] = second compound 0.316 µM, first compound 0.316 µM
[34] = second compound 0.316 µM, first compound 1 µM
[35] = second compound 0.316 µM, first compound 3.16 µM
[36] = second compound 0.316 µM, first compound 10 µM
[37] = second compound 1 µM, first compound 0.0316 µM
[38] = second compound 1 µM, first compound 0.1 µM
[39] = second compound 1 µM, first compound 0.316 µM
[40] = second compound 1 µM, first compound 1 µM
[41] = second compound 1 µM, first compound 3.16 µM
[42] = second compound 1 µM, first compound 10 µM
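Note: spheroids exposed to compounds for seven days before readout.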

**Q.** Which results are given for C[C@@H](NC(=O)c1ncnc(N)c1Cl)c1ncc(C(=O)Nc2cc(C(F)(F)F)c(Cl)cn2)s1 + CC(Nc1ccc2c(c1)OCCn1cc(N3C(=O)OCC3C(F)F)nc1-2)C(N)=O?
**A.** IC50 [1]: > 10 µM; IC50 [2]: > 10 µM; IC50 [3]: > 10 µM; IC50 [4]: > 10 µM; IC50 [5]: > 10 µM; IC50 [6]: > 10 µM; viability, T/C [7]: 112%; viability, T/C [8]: 116%; viability, T/C [9]: 87.5%; viability, T/C [10]: 120%; viability, T/C [11]: 115%; viability, T/C [12]: 103%; viability, T/C [13]: 118%; viability, T/C [14]: 131%; viability, T/C [15]: 113%; viability, T/C [16]: 111%; viability, T/C [17]: 101%; viability, T/C [18]: 102%; viability, T/C [19]: 90.4%; viability, T/C [20]: 97%; viability, T/C [21]: 92%; viability, T/C [22]: 96.1%; viability, T/C [23]: 101%; viability, T/C [24]: 108%; viability, T/C [25]: 88.5%; viability, T/C [26]: 97.4%; viability, T/C [27]: 93.9%; viability, T/C [28]: 94.2%; viability, T/C [29]: 90.1%; viability, T/C [30]: 76.2%; viability, T/C [31]: 67.7%; viability, T/C [32]: 72.4%; viability, T/C [33]: 95.1%; viability, T/C [34]: 80.8%; viability, T/C [35]: 77.8%; viability, T/C [36]: 80%; viability, T/C [37]: 61.2%; viability, T/C [38]: 59.8%; viability, T/C [39]: 59.3%; viability, T/C [40]: 64.3%; viability, T/C [41]: 75.5%; viability, T/C [42]: 58.9%

**Q.** Which results are given for CNC(=O)c1ccc(N2C(=S)N(c3ccc(C#N)c(C(F)(F)F)c3)C(=O)C2(C)C)cc1F + Cc1nc(NC(=O)N2CCCC2C(N)=O)sc1-c1ccnc(C(C)(C)C(F)(F)F)c1?
**A.** IC50 [3]: > 10 µM; IC50 [4]: > 10 µM; IC50 [5]: > 10 µM; IC50 [6]: > 10 µM; IC50 (curve of first compound, second compound 3.16 µM): > 10 µM; IC50 (curve of first compound, second compound 10 µM): > 10 µM; viability, T/C [19]: 109%; viability, T/C [20]: 94.6%; viability, T/C [21]: 93.8%; viability, T/C [22]: 131%; viability, T/C [23]: 101%; viability, T/C [24]: 90.5%; viability, T/C [25]: 105%; viability, T/C [26]: 112%; viability, T/C [27]: 103%; viability, T/C [28]: 91.9%; viability, T/C [29]: 134%; viability, T/C [30]: 93.2%; viability, T/C [31]: 78.9%; viability, T/C [32]: 102%; viability, T/C [33]: 93.2%; viability, T/C [34]: 76.4%; viability, T/C [35]: 98%; viability, T/C [36]: 93.6%; viability, T/C [37]: 74.5%; viability, T/C [38]: 71.2%; viability, T/C [39]: 88%; viability, T/C [40]: 70.8%; viability, T/C [41]: 97.7%; viability, T/C [42]: 82.4%; viability, T/C (second compound 3.16 µM, first compound 0.0316 µM): 76.9%; viability, T/C (second compound 3.16 µM, first compound 0.1 µM): 69%; viability, T/C (second compound 3.16 µM, first compound 0.316 µM): 64.3%; viability, T/C (second compound 3.16 µM, first compound 1 µM): 78.5%; viability, T/C (second compound 3.16 µM, first compound 3.16 µM): 72.3%; viability, T/C (second compound 3.16 µM, first compound 10 µM): 65.2%; viability, T/C (second compound 10 µM, first compound 0.0316 µM): 65.2%; viability, T/C (second compound 10 µM, first compound 0.1 µM): 67.3%; viability, T/C (second compound 10 µM, first compound 0.316 µM): 58.6%; viability, T/C (second compound 10 µM, first compound 1 µM): 62.1%; viability, T/C (second compound 10 µM, first compound 3.16 µM): 60.9%; viability, T/C (second compound 10 µM, first compound 10 µM): 46.9%

**Q.** CC1(C)CCC(Nc2ncc(C(F)(F)F)c(-c3c[nH]c4c(P(C)(C)=O)c(C#N)ccc34)n2)CN1 (configuration not stated) was tested. Which viability, T/C (compound 0.0316 µM) did it give?
**A.** Its viability, T/C is 97.9% [middle of 4 runs].

**Q.** What about the viability, T/C (compound 1 µM) of the same compound?
**A.** Its viability, T/C is 66.5% [middle of 4 runs].

**Q.** And the viability, T/C (compound 3.16 µM)?
**A.** The viability, T/C was 64.5% [middle of 4 runs].

**Q.** What about the viability, T/C (compound 10 µM) of the same compound?
**A.** Its viability, T/C is 36.4% [middle of 4 runs].

**Q.** What about the IC50 (curve of compound) of the same compound?
**A.** Its IC50 is 5.09 µM [middle of 4 runs].

**Q.** With C[C@@H](NC(=O)c1ncnc(N)c1Cl)c1ncc(C(=O)Nc2cc(C(F)(F)F)c(Cl)cn2)s1 + COc1c(OCCCN2CCOCC2)ccc2c3n(c(=NC(=O)c4cnc(N)nc4)nc12)CCN3 as the compound, how does the IC50 [1] read?
**A.** Its IC50 is over 10 µM.

**Q.** What about the IC50 [2] of the same compound?
**A.** The IC50 was over 10 µM.

**Q.** What about the IC50 [3] of the same compound?
**A.** Its IC50 is over 10 µM.

**Q.** What about the IC50 [4] of the same compound?
**A.** The IC50 was over 10 µM.

**Q.** What about the IC50 [5] of the same compound?
**A.** Its IC50 is under 0.0316 µM.

**Q.** And the IC50 [6]?
**A.** Its IC50 is under 0.0316 µM.

**Q.** What about the viability, T/C [7] of the same compound?
**A.** Its viability, T/C is 96.1%.

**Q.** And the viability, T/C [8]?
**A.** The viability, T/C was 88.5%.

**Q.** And the viability, T/C [9]?
**A.** Its viability, T/C is 107%.

**Q.** And the viability, T/C [10]?
**A.** Its viability, T/C is 110%.

**Q.** What about the viability, T/C [11] of the same compound?
**A.** The viability, T/C was 116%.

**Q.** And the viability, T/C [12]?
**A.** The viability, T/C was 66.7%.

**Q.** And the viability, T/C [13]?
**A.** The viability, T/C was 96.3%.

**Q.** What about the viability, T/C [14] of the same compound?
**A.** The viability, T/C was 96.8%.

**Q.** What about the viability, T/C [15] of the same compound?
**A.** Its viability, T/C is 111%.

**Q.** What about the viability, T/C [16] of the same compound?
**A.** Its viability, T/C is 89.5%.

**Q.** And the viability, T/C [17]?
**A.** Its viability, T/C is 69.9%.

**Q.** And the viability, T/C [18]?
**A.** Its viability, T/C is 72.1%.

**Q.** And the viability, T/C [19]?
**A.** The viability, T/C was 78.9%.

**Q.** What about the viability, T/C [20] of the same compound?
**A.** The viability, T/C was 88.3%.

**Q.** What about the viability, T/C [21] of the same compound?
**A.** The viability, T/C was 77.5%.

**Q.** And the viability, T/C [22]?
**A.** The viability, T/C was 84.3%.

**Q.** What about the viability, T/C [23] of the same compound?
**A.** The viability, T/C was 86.1%.

**Q.** What about the viability, T/C [24] of the same compound?
**A.** Its viability, T/C is 76.2%.

**Q.** And the viability, T/C [25]?
**A.** Its viability, T/C is 62.2%.

**Q.** What about the viability, T/C [26] of the same compound?
**A.** Its viability, T/C is 70.8%.

**Q.** What about the viability, T/C [27] of the same compound?
**A.** The viability, T/C was 68.1%.

**Q.** What about the viability, T/C [28] of the same compound?
**A.** Its viability, T/C is 82.1%.

**Q.** And the viability, T/C [29]?
**A.** The viability, T/C was 83.2%.

**Q.** What about the viability, T/C [30] of the same compound?
**A.** Its viability, T/C is 59.8%.

**Q.** And the viability, T/C [31]?
**A.** Its viability, T/C is 34.3%.

**Q.** And the viability, T/C [32]?
**A.** The viability, T/C was 37.2%.

**Q.** What about the viability, T/C [33] of the same compound?
**A.** Its viability, T/C is 44.1%.

**Q.** What about the viability, T/C [34] of the same compound?
**A.** Its viability, T/C is 42%.

**Q.** What about the viability, T/C [35] of the same compound?
**A.** The viability, T/C was 57.3%.

**Q.** And the viability, T/C [36]?
**A.** The viability, T/C was 34.2%.

**Q.** What about the viability, T/C [37] of the same compound?
**A.** The viability, T/C was 20.4%.

**Q.** What about the viability, T/C [38] of the same compound?
**A.** Its viability, T/C is 19.5%.

**Q.** What about the viability, T/C [39] of the same compound?
**A.** Its viability, T/C is 20.1%.

**Q.** And the viability, T/C [40]?
**A.** The viability, T/C was 20.9%.

**Q.** And the viability, T/C [41]?
**A.** The viability, T/C was 15.2%.

**Q.** And the viability, T/C [42]?
**A.** The viability, T/C was 5.92%.

**Q.** For C[C@@H](NC(=O)c1ncnc(N)c1Cl)c1ncc(C(=O)Nc2cc(C(F)(F)F)c(Cl)cn2)s1, which viability, T/C (compound 0.0316 µM) is on record?
**A.** Its viability, T/C is 104% [middle of 4 runs].

**Q.** And the viability, T/C (compound 0.1 µM)?
**A.** The viability, T/C was 103% [middle of 4 runs].

**Q.** And the viability, T/C (compound 0.316 µM)?
**A.** The viability, T/C was 106% [middle of 4 runs].

**Q.** And the viability, T/C (compound 3.16 µM)?
**A.** The viability, T/C was 95.3% [middle of 4 runs].

**Q.** What about the viability, T/C (compound 10 µM) of the same compound?
**A.** Its viability, T/C is 98.6% [middle of 4 runs].

**Q.** What about the IC50 (curve of compound) of the same compound?
**A.** Its IC50 is over 10 µM.
